The test system of one data set is Bird. The conditions noted are these: acute; oral; unspecified; mortality.
In the next data set the test system is Aphidius rhopalosiphi. The conditions noted are these: acute; duration: 2 days; mortality.
Another data set has as its system Apis mellifera. Conditions: acute; duration: 48 hours; dermal; mortality.
A further data set relates to Lepomis macrochirus. The conditions noted are these: acute; duration: 96 hours; mortality.
The test system of another data set is Daphnia magna. Conditions: chronic/long-term; duration: 21 days; reproduction.
Another data set deals with Oryctolagus sp. Conditions: acute; oral; mortality.
The subject of a further data set is Canidae. The conditions noted are these: chronic; duration: 1 years; oral; Dog Other; clinical signs.

≈ marks a conversion by molar mass, not a printed value.

For the molecule `CCCCN(CCCC)SN(C)C(=O)Oc1cccc2c1OC(C)(C)C2` [Carbosulfan], the LD50 in the data set with Bird turned out to be 10 mg/kg; in the data set with Apis mellifera, 0.18 µg/piece; in the data set with Oryctolagus sp., 42.7 mg/kg-day. In addition, the LEL in the data set with Aphidius rhopalosiphi was determined as 120 g/ha. In addition, the NOEL in the data set with Anas platyrhynchos (acute, oral, unspecified, mortality) was determined as 2.51 mg/kg; in the data set with Anas platyrhynchos (reproductive), 2.5 mg/kg-day. For the same molecule, the LC50 worked out at 3.99 mg/kg-day with Anas platyrhynchos (short-term, oral, feed, mortality) and 0.015 µg/mL (≈ 0.0394 µM) with Lepomis macrochirus. In the data set with Daphnia magna, this molecule registered an NOEC of 0.0032 mg/L. Also, the NOAEL came out at 1 mg/kg-day with Rattus norvegicus (chronic, duration: 104 weeks, neurology) and 2 mg/kg-day in the data set on Rattus norvegicus (subchronic, duration: 90 days, oral, clinical chemistry).
As for `CNC(=O)Oc1cccc2c1OC(C)(C)C2` [Carbofuran], the NOAEL in the data set on Rattus norvegicus (reproduction developmental) and in the data set on Canidae was 0.1 mg/kg-day throughout.

The values above are taken from EPA's ToxValDB 9.5 (doi:10.2903/j.efsa.2006.91r).
